In patent publication US20100069441A1, “ANTIMICROBIAL INDOLINE COMPOUNDS FOR TREATMENT OF BACTERIAL INFECTIONS” (priority 2008, published 2010):
Values after ≈ are worked out from the molar mass of the structure shown. Where two headings read alike, the source gives them in different places.

Tests used:
[1] = system: methicillin-resistant Staphylococcus aureus (MRSA; from the Massachusetts General Hospital, USA); assay: Antibacterial activity (MIC) against MRSA clinical isolate; assay type: cell-based; conditions: clinical isolate of MRSA, agar dilution
Text: Compounds of this invention can have useful activity against a variety of pathogenic microorganisms. The in vitro activity of compounds of this invention can be assessed by standard testing procedures such as the determination of minimum inhibitory concentration (MIC) by agar dilution as described in “Approved Standard. Methods for Dilution Antimicrobial Susceptibility Tests for Bacteria That Grow Aerobically”, 3rd. ed., published 1993 by the National Committee for Clinical Laboratory Standards, Villanova, Pennsylvania, USA. Minimum inhibitory concentration (MIC) refers to the lowest concentration of drug (μg/mL) that inhibits visible growth of the organism. Lower MIC values indicate a higher antibacterial activity. […] The useful activity of compounds of the present invention against a clinical isolate of methicillin-resistant Staphylococcus aureus (MRSA; from the Massachusetts General Hospital, USA) is illustrated by the MIC data of Table 1.

S. aureus = assay: In vivo antibacterial efficacy (ED50) in mice infected intraperitoneally; conditions: Staphylococcus aureus, po
Description: Determination of in vivo efficacy was performed by inoculating mice intraperitoneally with cultures of infecting organism using Linezolid as control. The compound was dissolved in DMSO with 20% cyclodextrin, diluted with deionized water, and administered orally (p.o.). The mice were dosed 1 hours after infection. Mortality was recorded after 72 hours. The 50% effective dose (ED50, mg/kg) was calculated at the end of the test.

[2] = system: human CD34+ bone marrow cells; assay: Bone marrow CD34+ cell growth inhibition (myelosuppressive potential), luminescence assay; assay type: cell-based; conditions: normalized IC50 ratio over reference compound of Example 18; incubation 9-10 days; higher ratio = reduced myelosuppression
Description: Myelosuppressive potential (hematopoietic or bone marrow toxicity) was evaluated using human CD34^+ bone marrow cells, generally following methods described by Leach in International Patent Publication No. WO 2006/097828. Thus, an oxazolidinone compound was incubated with fresh human bone marrow cells for 9-10 days at 37° C. in 5% CO2 atmosphere. At end of the incubation period, the bone marrow toxicity was accessed by measuring inhibition (IC50, μg/mL) of CD34^+ cell growth using a luminescence assay. Lower IC50 value indicates a higher myelosuppression potential with enhanced probability of undesired adverse effects in vivo, while a higher IC50 value indicates reduced bone marrow toxicity. For comparison, the data are represented as normalized IC50 ratio indicating the fold of improvement over the reference compound of Example 18, based on IC50 for each compound in the CD34 assay.

[3] = target: T1, Human monoamine oxidase (MOA) A type enzyme (Homo sapiens, UniProt P21397); assay: Monoamine oxidase A inhibition (MAO-Glo assay); assay type: biochemical; conditions: MAO-Glo kit
T1 construct: purchased BD Gentest
T1 sequence (P21397 1-527): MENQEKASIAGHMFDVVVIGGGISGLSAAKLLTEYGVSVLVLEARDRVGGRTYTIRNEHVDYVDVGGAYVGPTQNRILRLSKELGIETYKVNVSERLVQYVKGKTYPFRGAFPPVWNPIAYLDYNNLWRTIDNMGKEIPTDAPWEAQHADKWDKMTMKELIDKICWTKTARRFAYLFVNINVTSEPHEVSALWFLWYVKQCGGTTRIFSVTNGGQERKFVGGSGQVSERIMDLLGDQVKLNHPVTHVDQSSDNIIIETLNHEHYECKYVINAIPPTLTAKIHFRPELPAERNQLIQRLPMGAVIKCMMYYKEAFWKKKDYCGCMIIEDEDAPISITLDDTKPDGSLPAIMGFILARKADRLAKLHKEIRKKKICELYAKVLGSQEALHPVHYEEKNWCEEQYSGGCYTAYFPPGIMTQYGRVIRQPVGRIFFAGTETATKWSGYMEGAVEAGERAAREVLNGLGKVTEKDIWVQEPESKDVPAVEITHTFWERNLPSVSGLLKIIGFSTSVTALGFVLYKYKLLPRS
Description: Human monoamine oxidase (MOA) A type enzyme inhibition activity for select compounds was measured using a commercial MAO assay kit MAO-Glo™ from Promega Co. (USA). The assay was performed as described in the company's technical bulletin “MAO-Glo™ Assay”. The protocol involves an incubation of the MAO A enzyme (BD Gentest™) with a luminogenic MAO substrate to produce an enzymatic product which is converted to luciferin by a coupled reaction. The released luciferin undergoes further transformation to generate light that is detected and measured. The amount of the light is directly proportional to the activity of MAO. Percent inhibition at several concentrations is established relative to the uninhibited control rate, and the IC50 (μg/mL) values are calculated. […] The MAO inhibition data for select compound of this invention are illustrated in the Table 3 below.

[4] = mice, p.o., dosed 1 hour after infection, mortality recorded after 72 hours, read-out: ED50

Row | MIC [1] [µg/mL] | IC50 [3] [µM] | SMILES | ED50 (S. aureus; [4]) [mg/kg] | CD34 IC50 RATIO [2] | ED50 (S. aureus) [mg/kg]
1 | – | – | Cn1nnc(-c2ccc(-c3ccc4c(c3)C[C@H]3[C@H](COP(=O)([O-])[O-])OC(=O)N43)cn2)n1.[Na+].[Na+] [Example 5] | 5.6 | – | –
2 | 1 (≈ 2.37 µM) | > 237 | COC(=O)NC[C@@H]1OC(=O)N2c3ccc(-c4ccc(-c5nnn(C)n5)nc4)cc3C[C@@H]12 [Example 7] | – | – | –
3 | 1 (≈ 2.23 µM) | – | CC(=O)NC[C@@H]1OC(=O)N2c3ccc(-c4ccc(-n5cc(C(C)(C)O)nn5)nc4)cc3C[C@@H]12 [Example 12] | – | 2.5 | –
4 | 1 (≈ 2.38 µM) | > 238 | CC(=O)NC[C@@H]1OC(=O)N2c3ccc(-c4ccc(-n5cc(CO)nn5)nc4)cc3C[C@H]12 [Example 13] | – | 2.5 | –
5 | 1 (≈ 2.47 µM) | > 247 | CC(=O)NC[C@@H]1OC(=O)N2c3ccc(-c4ccc(-c5noc(C)n5)nc4)cc3C[C@@H]12 [Example 14] | – | 2.0 | –
6 | 4 (≈ 9.58 µM) | – | CC(=O)NC[C@@H]1OC(=O)N2c3ccc(-c4ccc(-n5cc(C)nc5C)nc4)cc3C[C@H]12 [Example 15] | – | – | –
7 | 0.5 (≈ 1.28 µM) | 43 | CC(=O)NC[C@@H]1OC(=O)N2c3ccc(-c4ccc(-n5cncn5)nc4)cc3C[C@H]12 [Example 16] | – | – | –
8 | 1 (≈ 2.38 µM) | – | CC(=O)NC[C@@H]1OC(=O)N2c3ccc(-c4ccc(-c5cc(CO)on5)nc4)cc3C[C@H]12 [Example 17] | – | 4.5 | –
9 | – | – | CC(=O)NC[C@@H]1OC(=O)N2c3ccc(-c4cccnc4)cc3C[C@H]12 [Example 18, reference compound] | – | 1 | –
10 | – | – | Cc1cnnn1-c1ccc(-c2ccc3c(c2)C[C@H]2[C@H](CO)OC(=O)N32)cn1 [Example 20] | – | 14.8 | –
11 | – | – | Cn1ncc(-c2ccc(-c3ccc4c(c3)C[C@H]3[C@H](CO)OC(=O)N43)cn2)n1 [Example 22] | – | 8.3 | –
12 | 1 (≈ 2.75 µM) | – | Cn1cc(-c2ccc(-c3ccc4c(c3)C[C@H]3[C@H](CO)OC(=O)N43)cn2)nn1 [Example 26] | – | 11.4 | –
13 | 0.25 (≈ 0.656 µM) | – | O=C1O[C@@H](CO)[C@@H]2Cc3cc(-c4ccc(-n5cc(CF)nn5)nc4)ccc3N12 [Example 27] | – | 1.6 | –
14 | 0.25 (≈ 0.681 µM) | – | O=C1OCCN1c1ccc(-c2ccc3c(c2)C[C@H]2[C@H](CO)OC(=O)N32)cn1 [Example 28] | – | 2.3 | –
15 | 1 (≈ 2.65 µM) | – | Cc1nnn(-c2ccc(-c3ccc4c(c3)C[C@H]3[C@H](CO)OC(=O)N43)cn2)c1C [Example 29] | – | 15.5 | –
16 | 0.25 (≈ 0.688 µM) | – | Cc1cn(-c2ccc(-c3ccc4c(c3)C[C@H]3[C@H](CO)OC(=O)N43)cn2)nn1 [Example 30] | – | 4.1 | –
17 | – | – | Cc1nnc(-c2ccc(-c3ccc4c(c3)C[C@H]3[C@H](COP(=O)([O-])[O-])OC(=O)N43)cn2)o1.[Na+].[Na+] [Example 32] | – | – | 10
18 | – | – | Cn1nncc1-c1ccc(-c2ccc3c(c2)C[C@H]2[C@H](COP(=O)([O-])[O-])OC(=O)N32)cn1.[Na+].[Na+] [Example 33] | – | – | 9.1
19 | – | – | N#CCc1cn(-c2ccc(-c3ccc4c(c3)C[C@H]3[C@H](COP(=O)([O-])[O-])OC(=O)N43)cn2)nn1.[Na+].[Na+] [Example 39] | 10 | – | –
20 | 2 (≈ 5.93 µM) | 12.2 | CC(=O)NC[C@H]1CN(c2ccc(N3CCOCC3)c(F)c2)C(=O)O1 [Linezolid, linezolid, reference compound] | – | – | –

Row | SMILES | MIC [1] [µg/mL] | IC50 [3] [µM] | ED50 (S. aureus; [4]) [mg/kg] | CD34 IC50 RATIO [2] | ED50 (S. aureus) [mg/kg]
21 | Cn1nnc(-c2ccc(-c3ccc4c(c3)C[C@H]3[C@H](CO)OC(=O)N43)cn2)n1 [Example 1] | 0.5 (≈ 1.37 µM) | – | 4.2 | 4.6 | –
22 | Cn1nnnc1-c1ccc(-c2ccc3c(c2)C[C@H]2[C@H](CO)OC(=O)N32)cn1 [Example 2] | 0.5 (≈ 1.37 µM) | – | 6.1 | 3.3 | –
23 | O=C1O[C@@H](CO)[C@@H]2Cc3cc(-c4ccc(-n5cnnn5)nc4)ccc3N12 [Example 3] | 0.25 (≈ 0.714 µM) | – | 3.3 | – | –
24 | N#CCn1nnc(-c2ccc(-c3ccc4c(c3)C[C@H]3[C@H](CO)OC(=O)N43)cn2)n1 [Example 21] | 0.25 (≈ 0.642 µM) | – | 9.5 | 2.3 | –
25 | Cc1nnc(-c2ccc(-c3ccc4c(c3)C[C@H]3[C@H](CO)OC(=O)N43)cn2)o1 [Example 23] | 0.25 (≈ 0.686 µM) | – | 5.3 | 2.5 | –
26 | N#CCc1cn(-c2ccc(-c3ccc4c(c3)C[C@H]3[C@H](CO)OC(=O)N43)cn2)nn1 [Example 24] | 0.25 (≈ 0.644 µM) | – | 9.8 | 1.6 | –
27 | Cn1nncc1-c1ccc(-c2ccc3c(c2)C[C@H]2[C@H](CO)OC(=O)N32)cn1 [Example 25] | 0.25 (≈ 0.688 µM) | – | 9.6 | 4.9 | –
